# Test results from PubChem BioAssay AID1996.
# Settings: buffer; pH 7.4; 200.0 µM
row,SMILES,solubility kinetic
1,NS(=O)(=O)c1ccc(NC(=O)Cc2cccs2)cc1,> 44.5 µg/mL
2,COc1ccc(CC(=O)NCc2ccc3c(c2)cc(C)n3C)cc1OC,20.8 µg/mL
3,COc1ccc(CNc2nc3ccccc3n2C(C)C)c(O)c1,25.7 µg/mL
4,O=C(Cc1ccccc1)NCC(=O)OCc1cccc([N+](=O)[O-])c1,> 49.2 µg/mL
5,O=C1ON=C(c2ccccc2)/C1=C\c1ccco1,35.2 µg/mL
6,O=c1c(Cc2ccccc2)c(O)ccn1C1CCCCCCC1,1.5 µg/mL
7,COc1ccc(-n2c(C)cc(=O)[nH]c2=O)cc1,> 34.8 µg/mL
8,CCOc1ccc(Oc2ccccc2NC(=O)CCNC(C)=O)cc1,> 51.4 µg/mL
9,O=C(NC1CCCCCCC1)c1ccc(Br)o1,37.2 µg/mL
10,O=C(COC(=O)COc1ccc(Cl)cc1)NCc1ccc2c(c1)OCO2,2.3 µg/mL
11,Cc1[nH]c2ccccc2c1SCC(=O)N1CCCCCC1,25.8 µg/mL
12,OC(c1nc2ccccc2[nH]1)C(O)C(O)C(O)c1nc2ccccc2[nH]1 (stereo not given),1.4 µg/mL
13,c1ccc(CCNCC2COc3ccccc3O2)cc1 (stereo not given),> 40.4 µg/mL
14,CCn1c2ccccc2c2cc(C#N)c(N)nc21,0.7 µg/mL
15,CN(Cc1nc(-c2ccc(Cl)cc2)no1)C(=O)c1ccco1,47.5 µg/mL
16,O=S(=O)(CCc1ccncc1)Cc1ccc2c3c(cccc13)CC2,11.8 µg/mL
17,O=C(O)C(Cc1ccccc1)N1C(=O)CCC1=O (stereo not given),> 37.1 µg/mL
18,COc1ccc(N2CC(C(=O)Nc3cccnc3)CC2=O)cc1 (stereo not given),> 46.7 µg/mL
19,N#CCCN(C(=O)COC(=O)c1cc(=O)[nH]c2ccccc12)c1ccccc1,> 56.3 µg/mL
20,COc1nc2ccccc2nc1N1CCN(Cc2ccc3c(c2)OCO3)CC1,2.9 µg/mL
21,CCOn1c(=O)c(-c2ccccc2)[n+]([O-])c2ccccc21,> 42.3 µg/mL
22,Cc1ccc(S(=O)(=O)NC(=O)Nc2c(C)cccc2C)cc1,33.6 µg/mL
23,CCOC(=O)CCn1cc(F)c(=O)[nH]c1=O,> 34.5 µg/mL
24,CC(C)N(C(=O)c1ccc(-c2ccccc2F)cc1)C(C)C,23.4 µg/mL

row,SMILES,solubility kinetic
1,Brc1cccc(CNCc2ccncc2)c1,> 41.6 µg/mL
2,Cc1ccc(N=Cc2c(O)c3ccccc3n(C)c2=O)cc1,3.3 µg/mL
3,CC(=O)c1cccc(NC(=O)COC(=O)c2ccccc2C)c1,4.9 µg/mL
4,CCOC(=O)c1c(C)[nH]c(C)c1C(=O)COC(=O)c1ccc(Cl)nc1,> 54.7 µg/mL
5,CCNC(=O)COC(=O)c1cc(-c2ccccc2)nn1-c1ccccc1,> 52.4 µg/mL
6,Cc1ccc(Nc2ccncc2S(N)(=O)=O)cc1,33 µg/mL
7,O=C(NCc1cccc(Cl)c1)C1CCCO1 (stereo not given),31.3 µg/mL
8,CC(C)Oc1ccccc1C1NC(=O)CCC1[N+](=O)[O-] (stereo not given),> 41.7 µg/mL
9,Cc1[nH]c2ccccc2c1C(=O)CN1CCCC(C)C1 (stereo not given),40.5 µg/mL
10,Nc1nc2ccccc2[nH]1,> 20 µg/mL
11,CC(C)CNC(=O)c1cc(-c2ccc3c(c2)OCO3)on1,0.5 µg/mL
12,COc1cccc(CN(C)Cc2nc(C3CC3)no2)c1,> 41 µg/mL
13,Br.Cn1c(=N)n(CC(=O)c2ccccc2)c2ccccc21,> 51.9 µg/mL
14,CCCn1c(C)c(C(=O)OCC)c(O)c(-c2ccccc2)c1=O,> 47.3 µg/mL
15,O=C(COC(=O)c1ccc(O)cc1)Nc1ccc(S(=O)(=O)N2CCOCC2)cc1,52.4 µg/mL
16,CC(C)C(=O)Nc1cc2c3c(c1)CCC(=O)N3CCC2,> 40.9 µg/mL
17,Cl.O=C(Nc1cccc(C(F)(F)F)c1)c1cccnc1NCCO,> 54.3 µg/mL
18,COc1ccc(CC(=O)NCc2nc(-c3ccccc3)no2)cc1,13.4 µg/mL
19,CCN1CCN(c2cc(C)nc(-c3ccccc3O)n2)CC1,> 44.8 µg/mL
20,CCNC(=O)CC1C(=O)N(c2ccc(C)cc2)C(=O)N1CCC(C)C (stereo not given),> 51.8 µg/mL
21,Cc1ccc(NC(=O)N2CCCc3ccccc32)cc1,36.2 µg/mL
22,COc1cc2c(cc1OC)C(c1cccc([N+](=O)[O-])c1)NC(=O)C2 (stereo not given),26.1 µg/mL
23,COc1ccc(/C=C/C(=O)OCC(=O)Nc2ncc(Cl)cc2Cl)cc1,8.1 µg/mL
24,COc1ccc(CCNC(=O)c2cccnc2SC)cc1,16 µg/mL

row,SMILES,solubility kinetic
1,COc1cccc(NC(=O)CCN2C(=O)C3CC=CCC3C2=O)c1 (stereo not given),> 49.3 µg/mL
2,CCN1CCN(CCC(=O)Nc2ccccc2C)CC1,> 41.3 µg/mL
3,COc1ccccc1OCC(O)CN1CCOCC1 (stereo not given),37.4 µg/mL
4,CC(=O)N(C)c1ccc(NC(=O)C(c2ccccc2)c2ccccc2)cc1,40.2 µg/mL
5,CC(C)c1cc(C(=O)O)c2ccccc2n1,28.2 µg/mL
6,COc1cccc(C(=O)COc2cccc(NC(=O)c3ccco3)c2)c1,14 µg/mL
7,CC(OC(=O)CC1CCCCC1)C(=O)Nc1cccc(C#N)c1 (stereo not given),37.1 µg/mL
8,CC(NC(=O)COC(=O)c1ccc2c(c1)OCO2)c1ccccc1 (stereo not given),14.9 µg/mL
9,COc1ccc(OCC(=O)Nc2nc3cc4c(cc3s2)OCCO4)cc1,4.6 µg/mL
10,CN(c1ccccc1)S(=O)(=O)c1ccc2c(c1)OCCO2,43.2 µg/mL
11,COc1ccc(NC(=O)c2ccccc2Oc2ccccc2)cc1,< 0.7 µg/mL
12,O=C(CSc1nccn1-c1ccccc1)NCc1ccc(F)cc1,33.5 µg/mL
13,CCn1cc(S(=O)(=O)Nc2ncccn2)cn1,> 38 µg/mL
14,COc1ccc2nc(NC(=O)Nc3ccccc3)sc2c1,< 0.2 µg/mL
15,NS(=O)(=O)c1ccc(NC(=O)COC(=O)Cc2c[nH]c3ccccc23)cc1,37.8 µg/mL
16,COc1cccc(CNC(=O)CCCNC(=O)c2ccc(Cl)cc2)c1,37.8 µg/mL
17,O=C(CC(=O)NCc1ccccc1)NCc1ccccc1,> 42.4 µg/mL
18,CCN(c1ccccc1)S(=O)(=O)c1ccc(C(=O)NCC(=O)Nc2ccc(F)c(F)c2F)cc1,2.8 µg/mL
19,CCCCNC(=S)Nc1ccc(C(F)(F)F)cc1,15.7 µg/mL
20,CCOc1ccccc1C1CC(=O)Nc2cc(C)c(C)cc21 (stereo not given),< 0.6 µg/mL
21,CCS(=O)(=O)N1CCc2nc(-c3ccccc3)sc2C1,> 46.3 µg/mL
22,CCOc1ccc(C(C)=O)cc1CN1C(=O)NC(C)(C2CC2)C1=O (stereo not given),41.3 µg/mL
23,O=c1ccc2ccc(Oc3ccc([N+](=O)[O-])cc3Cl)cc2o1,2.5 µg/mL
24,O=C(Nc1cccc2ccccc12)NC1CCCCC1,< 0.3 µg/mL

row,SMILES,solubility kinetic
1,CC(=O)Nc1ccc(OCCC[n+]2cccc(C(=O)[O-])c2)cc1,39.6 µg/mL
2,Cc1nc(-c2ccccc2)sc1C(=O)NN,> 35 µg/mL
3,Cc1ccc(S(=O)(=O)c2nc(-c3cccs3)oc2N2CCC(C(N)=O)CC2)cc1,> 64.7 µg/mL
4,Cc1nc([N+](=O)[O-])c(C(=O)OCc2ccccc2C#N)n1C,> 45 µg/mL
5,O=C(CNC(=O)c1ccccc1)NCC(c1ccco1)N1CCCC1 (stereo not given),> 51.2 µg/mL
6,O=C(O)CC(NC(=O)Cc1ccccc1)c1ccccc1 (stereo not given),27.4 µg/mL
7,COCC(=O)N(Cc1cc2cc(C)ccc2[nH]c1=O)c1cccc(C)c1C,12.3 µg/mL
8,CCSc1ccc(/C(N)=N/OC(=O)c2cccs2)cn1,0.3 µg/mL
9,COc1ccc(OCCNC(=O)c2ccc(C)cc2)cc1,36.8 µg/mL
10,Cc1cc(C(=O)N2CCC(C)CC2)on1,> 31.2 µg/mL
11,Cc1cnc(C(=O)OCC(=O)N(CC(C)C)C2CCS(=O)(=O)C2)cn1 (stereo not given),> 55.4 µg/mL
12,O=C(Nc1ccc(F)c(Cl)c1)N1CCCCCC1,5.8 µg/mL
13,Cc1cc(OCC(O)CN2CCOCC2)cc(C)c1Cl.Cl (stereo not given),45.2 µg/mL
14,COc1ccc(CCNC(=O)CCc2nc3ccccc3[nH]2)cc1OC,> 53 µg/mL
15,CC(=O)Nc1cccc(NC(=O)c2csc(C)c2)c1,> 41.2 µg/mL
16,CCN(CC)C(=S)Oc1ccc(Cl)cc1Cl,0.9 µg/mL
17,CC(C)N1CN(c2ccccc2)C(=S)N(c2ccccc2)C1,> 46.7 µg/mL
18,O=C(c1ccncc1)N1CCN(S(=O)(=O)c2ccc(F)cc2)CC1,> 52.4 µg/mL
19,CN(C)c1ccc(N=Cc2cccn2C)cc1,> 34.1 µg/mL
20,C=CCSc1nc2c(c(-c3ccsc3)c1C#N)CN(C)CC2,23 µg/mL
21,C/C(=C\c1ccc(N)cc1)c1nc2ccccc2[nH]1,> 37.4 µg/mL
22,COc1ccc(N(C(=O)c2ccncc2)S(=O)(=O)c2ccc(F)cc2)cc1,50.9 µg/mL
23,C=CCN1CCN(C(=O)c2cc3c(s2)CCCC3)CC1,> 43.6 µg/mL
24,Cc1ccc(C(=O)N2CCN(c3cccc(C)c3C)CC2)o1,31.8 µg/mL

row,SMILES,solubility kinetic
1,CCOC(=O)C1=C(C)N(CC(C)C)C(=O)/C1=C\c1cccs1,< 0.7 µg/mL
2,Cc1cc(NC(=O)COc2ccccc2C(N)=O)no1,19.7 µg/mL
3,COc1ccc(OCC(=O)OCC(=O)NC2CCCC2)cc1,> 46.1 µg/mL
4,Nc1cc(N)nc(SCC(=O)NCc2ccco2)n1,> 41.9 µg/mL
5,CCCN(CC(=O)Nc1ccc(F)c(F)c1F)C(=O)c1ccc2c(c1)NC(=O)CS2,11.2 µg/mL
6,COc1ccc(/C=C/C(=O)O)cc1S(=O)(=O)N1CCCCC1,> 48.8 µg/mL
7,CCc1nc2ccccc2c(C(=O)Nc2ccc(C)cc2)c1C,< 0.3 µg/mL
8,O=C1NC(=Nc2cccnc2)S/C1=C\c1cccc(F)c1,3.2 µg/mL
9,CC1(C)CC(NC(=O)C(=O)NCCc2ccccc2)CC(C)(C)N1,> 49.7 µg/mL
10,NC(=O)CCN1CCN(S(=O)(=O)/C=C/c2ccccc2)CC1,42.4 µg/mL
11,Cc1ccc(C2C(C#N)=C(N)Oc3cc(C)oc(=O)c32)o1 (stereo not given),> 42.6 µg/mL
12,O=C(Nc1nccs1)c1cc2cc(Cl)ccc2oc1=O,1.5 µg/mL
13,CCOC(=O)C1=C(C)Nc2ccccc2S1,17.9 µg/mL
14,Cc1ccc2c(c1)CCCN2C(=O)c1cc(C)c(C)s1,3.9 µg/mL
15,Cc1ccc(NC(=O)Cn2c(=O)oc3ccccc32)c(C)c1,13.9 µg/mL
16,CC(=O)Nc1cccc(OCCCNC(=O)c2ccc(C(C)(C)C)cc2)c1,23.2 µg/mL
17,CCC(C)[C@H](NC(=O)N1CCCCCC1)C(=O)OC (stereo not given in full),1.2 µg/mL
18,O=C1[C@H](O)[C@@H](O)C(=O)N1Cc1ccccc1,> 33.2 µg/mL
19,Cn1nc(C(C)(C)C)cc1C(=O)O,> 27.3 µg/mL
20,CC(C)CC(=O)Nc1ccc(Cc2ccncc2)cc1,> 40.3 µg/mL
21,Oc1ccc(-c2csc(Nc3ccccn3)n2)cc1,5.3 µg/mL
22,C=CCNc1nc(N)c([N+](=O)[O-])c(NCCO)n1,> 38.1 µg/mL
23,CCOC(=O)c1c(NC(=S)Nc2cccnc2)sc(C)c1C,20.1 µg/mL
24,COc1ccc(C2C(C#N)=C(N)OC3=C2C(=O)CCC3)cc1OC (stereo not given),> 49 µg/mL
